Values after ≈ are worked out from the molar mass of the structure shown.

The values below come from US20240115512A1, “PROCESS FOR PREPARING NANOFORMULATION FOR DELIVERY OF BERBAMINE” (priority 2021, published 2024).

What all share (test): MIC by serial dilution method
Holding throughout (type): cell-based

The test system of assay [1] is Staphylococcus hemolyticus (clinical isolate). As to the method:
(§1) Berbamine was tested for a panel of bacterial strains including Pseudomonas aeruginosa (ATCC 27853), Acinetobacter baumannii (ATCC 19606), Staphylococcus aureus (ATCC 29213) and clinical isolates of Klebsiella pneumoniae, Staphylococcus epidermidis, Staphylococcus hemolyticus and Burkholderia cepacia complex using serial dilution method. Ceftazidime was used as the standard antibiotic for validating the protocol.

Assay [2] deals with Staphylococcus epidermidis (clinical isolate). As to the method: as §1
Assay [3] deals with Staphylococcus aureus (ATCC 29213). The note with it: ATCC29213. How it is done:
as §1

Assay [4] relates to Klebsiella pneumoniae (clinical isolate). As to the method: as §1
For assay [5], the system named is Acinetobacter baumannii (ATCC 19606). To be noted: ATCC19606. As to the method:
as §1

`COc1cc2c3cc1Oc1c(OC)c(OC)cc4c1[C@@H](Cc1ccc(O)c(c1)Oc1ccc(cc1)C[C@@H]3N(C)CC2)N(C)CC4` [berbamine]: the minimal inhibitory concentration (MIC) in assay [1] is 128 µg/mL (≈ 210 µM); in assay [2], 128 µg/mL (≈ 210 µM); in assay [3], 256 µg/mL (≈ 421 µM); in assay [4], more than 4100 µg/mL; in assay [5], 256 µg/mL (≈ 421 µM).

A word on the MIC: it is the lowest concentration found to suppress growth. Read a low MIC as a more susceptible organism.
